Experiments:
[1] = tested on: bone marrow mononuclear cells of mice; assay: Induction of RA activity in mouse bone marrow (QPCR of RA target genes); type: in vivo; details: intravenous 40 μg/kg once per day for two days, versus vehicle
Experimental: Human and mouse bone marrow stromal cells express CYP26 enzymes and Cyp26B1 is highly inducible by RA in these cells. This experiment tests whether exposure of bone marrow to a CYP26 inhibitor is sufficient to raise RA levels in the bone marrow and induce RA-target genes. Mice (8-12 week old) were given intravenous injections (tall vein) on two consecutive days (once per day) of CYP26 inhibitor compound dissolved in 0.9% sodium chloride/0.1% DMSO. Animals were given a dose of 40 μg/kg of inhibitor, or an equal volume of vehicle alone. The morning after the second injection, animals were sacrificed, and bone marrow mononuclear cells were harvested from femurs using Lympholyte-mammal reagent (available from Cedarlane, Burlington, Canada). RNA was then extracted from isolated cells, and RA target gene expression assessed by qPCR.

MC3T3-E1 cells = assay: Osteoblast cell differentiation, MC3T3-E1 cells; type: cell-based, mouse
Experimental: These experiments are used to test the ability of CYP26 inhibitors to reduce or block osteoblast differentiation in vitro using a cell culture model. MC3T3-E1 mouse calvarias pre-osteoblasts (available from the American Type Culture Collection) were cultured in MEM-α without ascorbic acid. To induce osteoblast differentiation and matrix mineralization, cells are switched to medium containing ascorbic acid (50 μg/ml) and phosphate (10 mM β-glycerophosphate) and cultured for up to 21 days while changing media every 2-3 days. Cells are also treated with varying concentrations of RA or CYP26 inhibitor compound to assess effects on osteoblast differentiation. At the end of the treatment period, cells in 24-well plates and fixed in 70% ethanol, and stained with Alizarin red (40 mM pH 4.2) to visualize calcified extracellular matrix, indicative of osteoblast differentiation. Stained wells were photographed under a Leica MZ95 dissecting microscope. Other cells grown in 6 well plates are used for RNA extraction, and qPCR analysis of bone differentiation markers and RA target genes.

[2] = tested on: Cyp26a1-luc construct in MCF-7 cells; assay: Retinoid activity assay, Cyp26a1-luc reporter in MCF-7 cells; type: cell-based; details: for Rel. Luciferase Activity (mean): 24 hours, firefly relative to Renilla luciferase
Text: This retinoid activity assay measures the ability of test compounds to induce expression of a transiently transfected RA sensitive reporter construct. In this assay, MCF-7 cells are transfected with a construct comprising an upstream promoter of the CYP26A1 gene containing 2 RA response elements driving expression of firefly luciferase (pCYP26A1-luc). Since CYP26A1 is highly inducible by RA in these cells, this construct serves as a sensitive reporter of retinod-like transcriptional activity.
MCF-7 cells were maintained in a RPMI-1640 medium containing 10% FBS. Exponentially growing cells were harvested by incubation in trypsin. Cells were then collected and plated in 24-well plates at 50,000 cells/well. Once cells reached 80-90% confluence (e.g., the next day), cells were transfected with two plasmids. The first plasmid was CYP26A1-luc construct (375 ng). The second plasmid was a control plasmid comprising the Renilla luciferase gene driven by constitutive thymidine kinase promoter (pRL-tk) (25 ng). Transfection was performed using FuGene 6 transfection reagent (Promega) with a 1:3 ratio of DNA:FuGene. 24 hours after transfection, cells were treated with test compounds diluted in DMSO in triplicate at 0.1, 1 and 10 μM final concentrations. As a positive control for reporter activation, cells were also treated with RA diluted in DMSO at the same concentrations listed above. DMSO treatment alone served as a negative control. After 24 hours of treatment, cells were harvested in passive lysis buffer (Promega) and luciferase activity in cell lysates were read using a luminometer. Data are expressed as the activity of firefly luciferase relative to Renilla luciferase (see Tables 3-5). For CYP26A1 inhibitor compounds, no activation of the reporter was detected, while the related retinoid-like compound induces luciferase expression.

[3] = tested on: RA target genes in primary human bone marrow cells; assay: RA target gene expression in primary human bone marrow stromal cells; type: cell-based; details: co-treatment with RA
human AML THP-1 cells = assay: Leukemia cell differentiation by FACS (PE-CD11b), THP-1 cells with or without OP9 stroma; type: cell-based
Experimental: Many human non-APL AML cell lines are sensitive to RA-induced differentiation. However, co-culture of leukemic cells with bone marrow stromal cells can block this effect of RA. This assay tests the ability of CYP26 inhibitor compounds to overcome the protective effect that stromal cells have on leukemic cell differentiation. For these experiments, OP9 mouse bone marrow stromal cells are grown MEM-α containing 20% FBS, in 24 well plates until a cell monolayer is formed. OP9 cells are then irradiated (15Gy) using a GammaCell 20 cesium-137 source (located at Queen's University) in order to induce growth arrest. Leukemic cells are then added to the irradiated monolayers, or control wells without OP9 cells. AML cell lines (150,000 cells) are then plated onto OP9 monolayers in their appropriated growth medium; THP-1 RPMI-1640 medium containing 10% FBS; MDSL, RPMI-1640 medium containing 10% FBS and 10 ng/ml recombinant human IL-3; Kasumi-1, RPMI-1640 containing 20% FBS; MV4-11, IMDM containing 10% FBS. Cells are then treated for 72 hours with DMSO (vehicle control), RA (0.1 μM for THP-1 and MV4-11 cells, and 1 μM for Kasumi-1 cells), test CYP26 inhibitor compound, or the combination of RA and inhibitor compound. After the treatment period, leukemic cells are collected and stained with fluorophore labeled antibodies against cell surface antigens indicative of myeloid differentiation (PE-CD11b), or of stem cell populations (FITC-CD34, PE-CD38); all antibodies are available from BD Biosciences. Stained cells are then sorted by FACS in a BD FACS Aria 3 flow cytometer (Queen's University) using FACS Diva software, to assess percentage of cells that are CD11b^+, the relative expression levels of CD11b (by median fluorescence intensity—MFI), or percentage of CD34^+CD38^− leukemic stem cells (LSCs). Results are typically presented as the average of triplicates.

[4] = tested on: mouse OP9 bone marrow stromal cells; assay: RA metabolism by OP9 bone marrow stromal cells; type: cell-based
Experimental: These experiments are to assess the ability of primary cells, or cell lines to metabolize RA, and to determine the effect of inhibition of CYP26A1 or CYP26B1 on this ability. For these experiments, cells are plated into 48-well plates and treated with a radiolabeled (^3H) RA. The extent of conversion of this labeled RA to water soluble metabolites is determined as above for in the cell-based inhibitor assay. Primary human bone marrow stromal cells (available from Lonza) were cultured in MyeloCult (available from Stem Cell Technologies, Vancouver, Canada). Mouse OP9 bone marrow stromal cells and MC3T3 pre-osteoblasts were cultured as above. Cells are plated in the appropriate culture medium and allowed to form a monolayer. Cells are then pre-treated with either DMSO (vehicle control) or RA (1 μM) for 24 hours to induce CYP26 expression. Vehicle, and RA induced cells are then exposed to ^3H-RA in the presence or absence of test CYP26 inhibitor to examine the effects on RA metabolism. Cells are incubated for 3 hours with labeled RA, and metabolites extracted and analyzed as above.

Compound: CC(C)(C)c1cccc(-c2cc3cc(/C=C/C(=O)O)ccc3[nH]2)c1 [Compound 026]
- Expression of Cyp26a1 and Crabp2 in bone marrow mononuclear cells [1]: both induced
- Bglap and Ibsp expression (MC3T3-E1 cells; 10 nmol RA plus 1 μM compound): suppressing Bglap and Ibsp expression
- Bglap and Ibsp expression (MC3T3-E1 cells; 10 μM compound, osteogenic medium): blocked their expression
- Cyp26b1 gene expression (MC3T3-E1 cells; compared with controls): dramatic upregulation of Cyp26b1
- Calcified matrix (alizarin red staining) (MC3T3-E1 cells; osteogenic medium, 21 days, increasing concentrations): reduced by the presence of compound 026 in a dose-dependent manner
- Agonist activity in luciferase reporter transactivation experiment [2]: did not show agonist activity
- Rel. Luciferase Activity (mean) ([2]; 0.1 μM): .0522
- Rel. Luciferase Activity (mean) ([2]; 1 μM): .0472
- Rel. Luciferase Activity (mean) ([2]; 10 μM): .0678
- Expression of RA target genes in response to RA, co-treatment [3]: greatly enhanced and prolonged expression of RA target genes
- PE-CD11b MFI (human AML THP-1 cells; 0.1 μM RA plus 1 μM compound, OP9 stroma present, 72 hours): greatly enhanced CD11b MFI
- Sensitization to low doses of RA (human AML THP-1 cells; in the presence of stroma): sensitized THP-1 cells to low doses of RA
- RA metabolism, basal and RA-induced [4]: efficiently blocked basal and RA-induced RA metabolism
